From US20240122876A1, “COMPOSITIONS AND METHODS FOR THE TREATMENT OF OCULAR DISORDERS” (Case Western Reserve University, priority 2021, published 2024) come the findings set out here.

“And” between values parts separate entries of the source, which are not always exact repeats. Equal entries are not always repeated. “Also recorded” adds a separate entry of the source.

The target in one series is RPE65 (Bos taurus (Bovine), UniProt Q28175). The series can be described thus: RPE65 retinoid isomerase activity assay (11-cis-retinol production by bovine RPE microsomes). The series is classed as biochemical. Conditions: for IC50: inhibition of RPE65-mediated isomerization, decline in 11-cis-retinol production, bovine RPE microsomes. As for the experimental part:
After incubation at room temperature for 5 min, the resulting mixture was mixed with half microliter of all-trans-retinol (5 mM) in DMF, and then incubated at 37° C. for 1 h. The reaction was quenched by adding 400 μL of methanol (Fisher Chemical, Fair Lawn, NJ), and the products were extracted with 400 μL of hexanes.

The nature of series [1]: Quantification of primary amine compound levels in serum and eyes of mice after intraperitoneal treatment (LC-MS/MS). In kind it is in vivo. Conditions: mouse, 380 nmol i.p.; for initial plasma (serum) level: 3 h. As for the experimental part: Eight weeks old BL/6J mice were treated with 380 nmol visual cycle modulator 24, 49, 57, 58, 59 or emixustat in DMSO (50 μL) by intraperitoneal injection, and sacrificed at 3 h, 1 day, or 7 days later. Blood and eyeball samples were collected immediately. After clotting at room temperature for 30 min, the blood samples were centrifuged for 10 minutes at 17,000 g in a temperature-controlled benchtop centrifuge (Eppendorf AG). Each serum sample (100 μL) was carefully removed to avoid disturbing loose clots, precipitated with […] of pre-cooled methanol, and centrifuged at 17,000 g for 15 min at 4° C. The supernatant was carefully transferred to a SpinX centrifuge tube filter with a 0.45 μm cellulose acetate membrane (Costar, Salt Lake City, UT), and centrifuged at 7,000 g for 2 min. Filtered samples were dried under vacuum, reconstituted in 100 μL 50% methanol/water, and centrifuged at 17,000 g for 15 min at 4° C. The resulting supernatants were ready for Liquid Chromatography/Mass Spectrometry analyses. The two eyeballs from each mouse were homogenized in acetonitrile (2×800 μL). The resulting mixture was centrifuged at 17,000 g for 15 min at 4° C. The supernatant was dried under vacuum, reconstituted in 100 μl 50% methanol/water, and centrifuged at 17,000 g for 15 min at 4° C. Twenty microliters of the supernatant extracted from serum or eye samples was injected into an Ultimate 3000 HPLC system coupled with LXQ mass spectrometer (ThermoFisher Scientific, Waltham, MA) with an electrospray ionization unit.

Where [2] appears, read: RPE65 inhibition, ratio of IC50.

Sequence of RPE65 (Q28175 whole entry): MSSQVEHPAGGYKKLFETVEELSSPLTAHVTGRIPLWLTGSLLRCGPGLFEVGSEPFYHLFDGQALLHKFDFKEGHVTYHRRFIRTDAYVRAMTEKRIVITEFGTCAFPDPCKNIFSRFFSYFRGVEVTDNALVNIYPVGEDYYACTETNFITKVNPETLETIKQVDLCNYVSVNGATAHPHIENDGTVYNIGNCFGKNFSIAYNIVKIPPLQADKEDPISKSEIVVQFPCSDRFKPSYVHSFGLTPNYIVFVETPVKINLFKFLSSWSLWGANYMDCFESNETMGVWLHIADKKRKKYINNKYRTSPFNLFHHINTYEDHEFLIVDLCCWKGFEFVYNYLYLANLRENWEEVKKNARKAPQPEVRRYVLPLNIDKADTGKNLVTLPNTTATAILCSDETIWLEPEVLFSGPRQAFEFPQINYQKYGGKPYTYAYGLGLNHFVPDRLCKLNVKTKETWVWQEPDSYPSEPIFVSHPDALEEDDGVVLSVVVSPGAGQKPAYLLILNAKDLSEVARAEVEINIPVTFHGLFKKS

In general, IC50 refers to the point on the concentration scale where inhibition reaches its midpoint. Lower therefore signals greater potency in that assay. The compound `CC1=C(COc2cccc(C(O)CCN)c2F)C(C)(C)CCC1` (stereo not shown) [Compound 56, 3-amino-1-(2-fluoro-3-((2,6,6-trimethylcyclohex-1-en-1-yl)methoxy)phenyl)propan-1-ol] came in with a half-inhibitory concentration (IC50) against RPE65 of 169 ± 13 nM.

Compound `CCCC(CCC)COc1cc(F)cc(C(O)CCN)c1` (racemic) [Compound 25, (S/R)-3-amino-1-(3-fluoro-5-((2-propylpentyl)oxy)phenyl)propan-1-ol] registered an IC50 on RPE65 of 295 ± 132 nM.

For the compound `CC1=C(COc2cc(F)cc(C(O)CCN)c2)C(C)(C)CCC1` (stereo not shown) [Compound 54, 3-amino-1-(3-fluoro-5-((2,6,6-trimethylcyclohex-1-en-1-yl)methoxy)phenyl)propan-1-ol], on RPE65, the IC50 was determined as 292 ± 89 nM.

In the case of `NCCC(O)c1cccc(OCC2CCC(F)(F)CC2)c1` (stereo not shown) [Compound 57, 3-amino-1-(3-((4,4-difluorocyclohexyl)methoxy)phenyl) propan-1-ol], the 50% inhibitory concentration (IC50) against RPE65 is 100 nM and 103 nM. Further, the “distribution within ocular tissue” value in series [1] was “further enhanced ocular distribution”.

Take `NCCC(O)c1cc(F)cc(OCC2CCCCC2)c1` (stereo not shown) [Compound 50, 3-amino-1-(3-(cyclohexylmethoxy)-5-fluorophenyl)propan-1-ol]: the half-inhibitory concentration (IC50) on RPE65 was determined as 201 ± 23 nM.

As to `CCCC(CCC)COc1cc([C@@H](O)CCN)ccc1F` [Compound 23, (S)-3-Amino-1-(4-fluoro-3-((2-propylpentyl)oxy)phenyl)propan-1-ol], on RPE65, the IC50 was 177 ± 11 nM.

On to `CC1=C(COc2ccc(F)c(C(O)CCN)c2)C(C)(C)CCC1` (stereo not shown) [Compound 55, 3-amino-1-(2-fluoro-5-((2,6,6-trimethylcyclohex-1-en-1-yl)methoxy)phenyl)propan-1-ol], for which the IC50 on RPE65 came to 124 ± 21 nM.

`CCCC(CCC)COc1cccc(C(O)CCN)c1F` (racemic) [Compound 30, (S/R)-3-amino-1-(2-fluoro-3-((2-propylpentyl)oxy)phenyl)propan-1-ol] registered a half-inhibitory concentration (IC50) on RPE65 of 274 ± 47 nM.

In the case of `CCCC(CCC)COc1cc([C@H](O)CCN)ccc1F` [Compound 24, (R)-3-Amino-1-(4-fluoro-3-((2-propylpentyl)oxy)phenyl)propan-1-ol], on RPE65 (setting [2]), the “inhibitory potency / IC50 relative to (R)-MB-004” value is listed as “twice; also recorded: approximately two-fold lower” and the “inhibitory potency relative to racemic emixustat” value is reported as 3 times. Besides, inhibition against RPE65 was half-maximal at 50 ± 9 nM (IC50). For the same compound, in series [1], the “distribution within ocular tissue” value is given as “poorest distribution within ocular tissue”, the plasma half-life result is “longer plasma half-life” and the “initial plasma (serum) level” value is on record as “highest initial plasma levels”.

Take `NCCC(O)c1ccc(F)c(OCC2CCCCC2)c1` (stereo not shown) [Compound 49, 3-amino-1-(3-(cyclohexylmethoxy)-4-fluorophenyl)propan-1-ol]: it took 95 ± 5 nM to reach half-maximal inhibition on RPE65 (IC50). In series [1], the “distribution within ocular tissue” value is “poorest distribution within ocular tissue” and the “initial plasma (serum) level” value was “highest initial plasma levels”.

At RPE65, `CC1=C(COc2cc(C(O)CCN)ccc2F)C(C)(C)CCC1` (stereo not shown) [Compound 53, 3-amino-1-(4-fluoro-3-((2,6,6-trimethylcyclohex-1-en-1-yl)methoxy)phenyl)propan-1-ol] gave a half-inhibitory concentration (IC50) of 284 ± 20 nM.

For `CCCC(CCC)COc1ccc(F)c(C(O)CCN)c1` (racemic) [Compound 28, (S/R)-3-amino-1-(2-fluoro-5-((2-propylpentyl)oxy)phenyl)propan-1-ol], half-maximal inhibition at RPE65 (IC50) required 132 ± 19 nM.

In turn, `NCCC(O)c1cc(OCC2CCCCC2)ccc1F` (stereo not shown) [Compound 51, 3-amino-1-(5-(cyclohexylmethoxy)-2-fluorophenyl)propan-1-ol] displayed an IC50 against RPE65 of 145 ± 9 nM.

Compound `NCCC(O)c1cccc(OCC2CCCCC2)c1F` (stereo not shown) [Compound 52, 3-amino-1-(3-(cyclohexylmethoxy)-2-fluorophenyl)propan-1-ol] had an IC50 on RPE65 of 358 ± 42 nM.

As for `[2H]C([2H])(N)CC(O)c1cccc(OCC2CCC(F)(F)CC2)c1` (stereo not shown) [Compound 59, 3-amino-1-(3-((4,4-difluorocyclohexyl)methoxy)phenyl)propan-3,3-d2-1-ol], half-maximal inhibition at RPE65 (IC50) was put at 269 ± 40 nM.

With `CCCC(CCC)COc1ccc(F)c(C(O)CCN)c1` (racemic) [Compound 27, (S/R)-3-amino-1-(2-fluoro-5-((2-propylpentyl)oxy)phenyl)propan-1-ol], on RPE65, the IC50 came out at 157 ± 24 nM.

Consider `CCCC(CCC)COc1cccc(C(O)CCN)c1F` (racemic) [Compound 29, (S/R)-3-amino-1-(2-fluoro-3-((2-propylpentyl)oxy)phenyl)propan-1-ol], for which the midpoint of inhibition on RPE65, the IC50, lay at 287 ± 283 nM.

Compound `CC1=C(COc2cccc([C@H](O)CCN)c2)C(C)(C)CCC1` [(R)-MB-001, reference compound] gave an IC50 on RPE65 of 323 ± 145 nM.

`CCCC(CCC)COc1cccc([C@H](O)CCN)c1` [(R)-MB-004, reference compound] registered a concentration for half-maximal inhibition (IC50) on RPE65 of 106 ± 16 nM.

As to `CCCC(CCC)COc1cc(F)cc(C(O)CCN)c1` (racemic) [Compound 26, (S/R)-3-amino-1-(3-fluoro-5-((2-propylpentyl)oxy)phenyl)propan-1-ol], the IC50 against RPE65 amounted to 184 ± 24 nM.
